Measured values: patent US20230011869A1 (Hoffmann-La Roche Inc., priority 2018, published 2023)
Where a name gives a salt, the structure may show the parent alone. Read-outs that look alike come from different tables or passages of the source.

Test system: Acinetobacter baumannii ATCC17978
Experiment: Antimicrobial susceptibility testing: 90% growth inhibitory concentration (IC90) determination, Iso-Sensitest broth
Format: cell-based
Summary of the method: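 A. baumannii ATCC17978 grown in Iso-Sensitest broth across 10 compound concentrations at 35±2 °C.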

[1] = 90% growth inhibitory concentration, Acinetobacter baumannii ATCC17978, Iso-Sensitest broth, OD 600 nm over 16 h, read-out: ATCC17978 IC90
[2] = Acinetobacter baumannii, ATCC17978, 16 h, read-out: ATCC17978 IC90, 90% growth inhibitory concentration, Acinetobacter baumannii ATCC17978, Iso-Sensitest broth, OD 600 nm over 16 h

IC90 [1] | SMILES | IC90 [2]
0.35 µM | COc1ccc(-c2cnc3c(Nc4ccc(C(=O)N5CCOCC5)c(C)c4)nccn23)cc1 [Example 6, (4-((3-(4-methoxyphenyl)imidazo[1,2-a]pyrazin-8-yl)amino)-2-methylphenyl)(morpholine)methanone] | 
 | COc1ccc(-c2cnc3c(Nc4ccc(C(=O)N5CCC(C(=O)NCC6(O)CNC6)CC5)c(C)c4)nccn23)cc1F [Example 58, 1-(4-((3-(3-fluoro-4-methoxyphenyl)imidazo[1,2-a]pyrazin-8-yl)amino)-2-methylbenzoyl)-N-((3-hydroxyazetidin-3-yl)methyl)piperidine-4-carboxamide 2,2,2-trifluoroacetate] | 0.25 µM
0.49 µM | Cc1cc(Nc2nccn3c(-c4ccc(OC(F)F)c(F)c4)cnc23)ccc1C(=O)N1CCC(N)CC1 [Example 362, (4-aminopiperidin-1-yl)-[4-[[3-[4-(difluoromethoxy)-3-fluorophenyl]imidazo[1,2-a]pyrazin-8-yl]amino]-2-methylphenyl]methanone; hy-drochloride] | 
0.13 µM | Cc1cc(Nc2nccn3c(-c4ccc(OC(F)F)cc4)cnc23)ccc1C(=O)N1CCN(C(=O)[C@@H]2CCN2)CC1 [Example 176, [4-[(2S)-azetidine-2-carbonyl]piperazin-1-yl]-[4-[[3-[4-(difluoromethoxy)phenyl]imidazo[1,2-a]pyrazin-8-yl]amino]-2-methyl-phenyl]methanone hydrochloride] | 
0.11 µM | COc1ccc(-c2cnc3c(Nc4ccc(C(=O)N5CCN(C(=O)C6C7CCC6CNC7)CC5)c(C)c4)nccn23)c(F)c1F (stereo not shown) [Example 205, [4-(3-azabicyclo[3.2.1]octane-8-carbonyl)piperazin-1-yl]-[4-[[3-(2,3-difluoro-4-methoxy-phenyl)imidazo[1,2-a]pyrazin-8-yl]amino]-2-methyl-phenyl]methanone hydrochloride] | 
 | Cc1cc(Nc2nccn3c(-c4ccc(OC(F)F)cc4)cnc23)ccc1C(=O)N1CCC(C(=O)N2C[C@H](O)[C@@H](O)[C@H](O)[C@H]2CO)CC1 [Example 349, [4-[[3-[4-(difluoromethoxy)phenyl]imi-dazo[1,2-a]pyrazin-8-yl]amino]-2-methylphenyl]-[4-[(2R,3R,4R,5S)-3,4,5-trihydroxy-2-(hydroxymethyl)piperidine-1-carbonyl]piperidin-1-yl]methanone] | 0.66 µM
 | Cc1cc(Nc2nccn3c(-c4ccc(OC(F)F)cc4)cnc23)ccc1C(=O)N1CCN(C(=O)C(O)CO)CC1 (stereo not shown) [Example 346, 1-[4-[4-[[3-[4-(difluoromethoxy)phenyl]imi-dazo[1,2-a]pyrazin-8-yl]amino]-2-methylbenzoyl]piperazin-1-yl]-2,3-dihydroxypropan-1-one] | 0.62 µM
 | CNC1CCN(C(=O)c2ccc(Nc3nccn4c(-c5ccc(OC(F)F)cc5)cnc34)cc2C)CC1 [Example 374, [4-[[3-[4-(difluoromethoxy)phenyl]imi-dazo[1,2-a]pyrazin-8-yl]amino]-2-methylphenyl]-[4-(methylamino)piperidin-1-yl]methanone; hydrochloride] | 1.7 µM
6.7 µM | COc1ccc(-c2cnc3c(Nc4ccc(C(=O)N5CCCCC5CN(C)C)c(C)c4)nccn23)cc1F (stereo not shown) [Example 253, [2-[(dimethylamino)methyl]pi-peridin-1-yl]-[4-[[3-(3-fluoro-4-methoxyphenyl)imidazo[1,2-a]pyrazin-8-yl]amino]-2-methylphenyl]methanone; for-mic acid] | 
 | Cc1cc(Nc2nccn3c(-c4ccc(OCC#N)c(F)c4F)cnc23)ccc1C(=O)N1CCC(C(=O)OC[C@@H]2CNCCN2)CC1 [Example 473, formic acid; [(2S)-piperazin-2-yl]methyl 1-[4-[[3-[4-(cyanomethoxy)-2,3-difluorophenyl]imidazo[1,2-a]pyrazin-8-yl]amino]-2-methylbenzoyl]piperidine-4-carboxylate] | 0.3 µM
0.85 µM | COc1ccc(-c2cnc3c(Nc4ccc(C(=O)N5CCC(C(=O)NCC(O)C(O)CO)CC5)c(C)c4)nccn23)cc1F (stereo not shown) [Example 257, 1-[4-[[3-(3-fluoro-4-methoxyphenyl)imidazo[1,2-a]pyrazin-8-yl]amino]-2-methylbenzoyl]-N-(2,3,4-trihydroxybutyl)piperidine-4-carboxamide] | 
 | CCc1cc(Nc2nccn3c(-c4ccc(OCC#N)c(F)c4F)cnc23)ccc1C(=O)N1CCC(C(=O)N2CCN[C@H](CO)C2)CC1 [Example 541, 2-[4-[8-[3-ethyl-4-[4-[(3S)-3-(hydroxymethyl)piperazine-1-carbonyl]piperidine-1-carbonyl]anilino]imidazo[1,2-a]pyrazin-3-yl]-2,3-difluorophenoxy]acetonitrile; 2,2,2-trifluoroacetic acid] | 0.096 µM
 | COc1ccc(-c2cnc3c(Nc4ccc(C(=O)N5CCC(C(=O)NC6(C(N)=O)CNC6)CC5)c(C)c4)nccn23)cc1F [Example 407, N-(3-carbamoylazetidin-3-yl)-1-[4-[[3-(3-fluoro-4-methoxyphenyl)imidazo[1,2-a]pyrazin-8-yl]amino]-2-methylbenzoyl]piperidine-4-carboxamide; 2,2,2-trifluoroacetic acid] | 0.54 µM
0.26 µM | Cc1cc(Nc2nccn3c(-c4ccc(OC(F)F)cc4)cnc23)ccc1C(=O)N1CCN(C(=O)N2CCOC(CN)C2)CC1 (stereo not shown) [Example 134, [4-[2-(aminomethyl)morpholine-4-carbonyl]piperazin-1-yl]-[4-[[3-[4-(difluoromethoxy)phenyl]imidazo[1,2-a]pyrazin-8-yl]amino]-2-methyl-phenyl]methanone hydrochloride] | 
 | Cc1cc(Nc2nccn3c(-c4ccc(OC(F)F)cc4)cnc23)ccc1C(=O)N1CCC(C(=O)NC23CN4CN(CN(C4)C2)C3)CC1 [Example 405, 1-[4-[[3-[4-(difluoromethoxy)phenyl]imi-dazo[1,2-a]pyrazin-8-yl]amino]-2-methylbenzoyl]-N-(1,3,5-triazatricyclo[3.3.1.1^3,7]decan-7-yl)piperidine-4-carboxamide] | 0.48 µM
0.21 µM | Cc1cc(Nc2nccn3c(-c4cc(F)c(OCC#N)cc4Cl)cnc23)ccc1C(=O)N1CCC(C(=O)N2CCNC(CO)C2)CC1 (stereo not shown) [Example 32, 2-[5-chloro-2-fluoro-4-[8-[4-[4-[3-(hydroxymethyl)piperazine-1-carbonyl]piperidine-1-carbonyl]-3-methyl-anilino]imidazo[1,2-a]pyrazin-3-yl]phenoxy]acetonitrile;2,2,2-trifluoroacetic acid] | 
0.11 µM | Cc1cc(Nc2nccn3c(-c4ccc(OC(F)F)cc4)cnc23)ccc1C(=O)N1CCN(C(=O)N[C@H]2CCNC2)CC1 [Example 138, 4-[4-[[3-[4-(difluoromethoxy)phenyl]imidazo[1,2-a]pyrazin-8-yl]amino]-2-methyl-benzoyl]-N-[(3S)-pyrrolidin-3-yl]piperazine-1-carboxamide hydrochloride] | 
0.22 µM | Cc1cc(Nc2nccn3c(-c4ccc(OC(F)F)cc4)cnc23)ccc1C(=O)N1CCN(C(=O)CN(C)C)CC1 [Example 38, 1-(4-(4-((3-(4-(difluoromethoxy)phenyl)imidazo[1,2-a]pyrazin-8-yl)amino)-2-methylbenzoyl)piperazin-1-yl)-2-(dimethylamino)ethanone] | 
 | Cc1cc(Nc2nccn3c(-c4ccc(OC(F)F)cc4)cnc23)ccc1C(=O)N1CCN(C(=O)N2CCNC(CN)C2)CC1 (stereo not shown) [Example 500, [4-[3-(aminomethyl)piperazine-1-carbonyl]piperazin-1-yl]-[4-[[3-[4-(difluoromethoxy)phenyl]imi-dazo[1,2-a]pyrazin-8-yl]amino]-2-methylphenyl]methanone; for-mic acid] | 0.39 µM
 | COc1ccc(-c2cnc3c(Nc4ccc(C(=O)N5CCC(C(=O)N6CCN[C@@H](CO)C6)CC5)c(C)c4)nccn23)c(F)c1F [Example 544, [4-[[3-(2,3-difluoro-4-methoxyphenyl)imidazo[1,2-a]pyrazin-8-yl]amino]-2-methylphenyl]-[4-[(3R)-3-(hydroxymethyl)piperazine-1-carbonyl]piperidin-1-yl]methanone; formic acid] | 0.1 µM
 | CCN(CC)C(=O)N1CCN(C(=O)c2ccc(Nc3nccn4c(-c5ccc(OC(F)F)cc5)cnc34)cc2C)CC1 [Example 369, 4-[4-[[3-[4-(difluoromethoxy)phenyl]imi-dazo[1,2-a]pyrazin-8-yl]amino]-2-methylbenzoyl]-N,N-diethylpiperazine-1-carboxamide] | 0.89 µM
 | Cc1cc(Nc2nccn3c(-c4ccc(OC(F)F)cc4)cnc23)ccc1C(=O)N1CCOC2(CCNCC2)C1 [Example 379, [4-[[3-[4-(difluoromethoxy)phenyl]imi-dazo[1,2-a]pyrazin-8-yl]amino]-2-methylphenyl]-(1-oxa-4,9-diazaspiro[5.5]undecan-4-yl)methanone; hydrochloride] | 2.8 µM
0.33 µM | Cc1cc(Nc2nccn3c(-c4ccc(OCC#N)c(F)c4F)cnc23)ccc1C(=O)N1CCC(C(=O)N2CCNC[C@@H]2CO)CC1 [Example 497, 2-[2,3-difluoro-4-[8-[4-[4-[(2R)-2-(hydroxymethyl)piperazine-1-carbonyl]piperidine-1-carbonyl]-3-methylanilino]imidazo[1,2-a]pyrazin-3-yl]phenoxy]acetonitrile; for-mic acid] | 
0.77 µM | COc1ccc(-c2cnc3c(Nc4ccc(C(=O)N5CC6(CNC6)C5)c(C)c4)nccn23)cc1F [Example 413, 2,6-diazaspiro[3.3]heptan-2-yl-[4-[[3-(3-fluoro-4-methoxyphenyl)imidazo[1,2-a]pyrazin-8-yl]amino]-2-methylphenyl]methanone; for-mic acid] | 

SMILES | IC90 [1] | IC90 [2]
COc1ccc(-c2cnc3c(Nc4ccc(C(=O)N5CCN(C(=O)[C@H]6CCNC[C@@H]6O)CC5)c(C)c4)nccn23)c(F)c1F [Example 192, [4-[[3-(2,3-difluoro-4-methoxy-phenyl)imidazo[1,2-a]pyrazin-8-yl]amino]-2-methyl-phenyl]-[4-[(3R,4S)-3-hydroxypiperidine-4-carbonyl]piperazin-1-yl]methanone hydrochloride] | 0.29 µM | 
